Test results reported in ChEMBL document CHEMBL5512602, “Unlocking the synthetic approaches and clinical application of approved small-molecule drugs for gastrointestinal cancer treatment: A comprehensive exploration” (Eur J Med Chem, 2023).

Experiments:
A-375 = assay: Antiproliferative activity against human A-375 cells harboring BRAF V600E mutant assessed as reduction in cell growth; format: functional, cell-based
[1] = biological target: Vascular endothelial growth factor receptor 2 (Homo sapiens, UniProt P35968); assay: Inhibition of human recombinant VEGFR2 by FRET based Z-LYTE kinase assay
Sequence of Vascular endothelial growth factor receptor 2 (P35968 whole entry): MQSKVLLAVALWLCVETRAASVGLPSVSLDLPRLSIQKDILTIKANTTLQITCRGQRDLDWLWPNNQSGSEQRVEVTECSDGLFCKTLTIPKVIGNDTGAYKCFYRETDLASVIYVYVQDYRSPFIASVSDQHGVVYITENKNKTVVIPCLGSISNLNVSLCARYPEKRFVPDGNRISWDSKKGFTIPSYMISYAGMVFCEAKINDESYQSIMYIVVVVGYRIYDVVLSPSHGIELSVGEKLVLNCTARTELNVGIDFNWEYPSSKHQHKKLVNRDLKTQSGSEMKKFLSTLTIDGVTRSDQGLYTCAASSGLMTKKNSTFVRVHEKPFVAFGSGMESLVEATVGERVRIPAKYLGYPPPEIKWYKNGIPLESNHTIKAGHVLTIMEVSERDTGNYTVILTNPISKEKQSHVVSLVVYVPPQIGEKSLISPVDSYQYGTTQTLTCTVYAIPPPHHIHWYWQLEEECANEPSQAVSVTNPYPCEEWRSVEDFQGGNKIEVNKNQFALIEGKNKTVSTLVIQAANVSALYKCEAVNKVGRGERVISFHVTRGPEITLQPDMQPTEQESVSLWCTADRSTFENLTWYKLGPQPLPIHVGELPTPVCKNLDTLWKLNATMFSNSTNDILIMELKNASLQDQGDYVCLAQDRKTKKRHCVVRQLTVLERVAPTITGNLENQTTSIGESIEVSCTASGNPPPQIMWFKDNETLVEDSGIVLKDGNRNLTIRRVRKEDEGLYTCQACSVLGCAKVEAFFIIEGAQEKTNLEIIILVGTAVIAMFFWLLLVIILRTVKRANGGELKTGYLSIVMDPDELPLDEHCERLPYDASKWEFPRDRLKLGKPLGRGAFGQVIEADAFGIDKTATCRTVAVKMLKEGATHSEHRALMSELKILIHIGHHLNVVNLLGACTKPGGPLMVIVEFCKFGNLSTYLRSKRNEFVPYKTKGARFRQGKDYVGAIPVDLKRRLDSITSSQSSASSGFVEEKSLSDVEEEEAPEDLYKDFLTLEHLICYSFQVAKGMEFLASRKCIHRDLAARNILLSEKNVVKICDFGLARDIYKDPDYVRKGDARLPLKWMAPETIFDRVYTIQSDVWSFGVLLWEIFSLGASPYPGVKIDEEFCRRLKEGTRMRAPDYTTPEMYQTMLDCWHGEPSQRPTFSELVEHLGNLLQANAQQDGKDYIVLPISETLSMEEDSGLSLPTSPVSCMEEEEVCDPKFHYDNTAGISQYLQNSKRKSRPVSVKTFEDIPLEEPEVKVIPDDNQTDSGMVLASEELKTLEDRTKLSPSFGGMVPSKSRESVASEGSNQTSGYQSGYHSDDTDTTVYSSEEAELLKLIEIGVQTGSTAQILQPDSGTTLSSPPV

SMILES: COC(=O)N[C@@H](C)CNc1nccc(-c2cn(C(C)C)nc2-c2cc(Cl)cc(NS(C)(=O)=O)c2F)n1 [ENCORAFENIB]
- EC50 (A-375): 4 nM

SMILES: CNC(=O)c1c(C)oc2cc(Oc3ncnc4cc(OC)c(OC)cc34)ccc12 [FRUQUINTINIB]
- IC50 [1]: 0.35 nM
